Patent publication US20260165974A1, “Moisture-proof L-a-glycerylphosphorylcholine” (NANJING NUTRABUILDING BIO-TECH CO., LTD., priority 2023, published 2026)

Columns and labels:
Assay type in all cases: physicochemical
[1] = Hygroscopicity: moisture absorption weight gain in artificial climate box; conditions: temperature 25° C., relative humidity 75%
Experimental: Specific test method: A dry glass weighing bottle with plug (outer diameter 50 mm, height 15 mm) was placed in an artificial climate box (temperature 25° C., relative humidity 75%) one day before the test, and was accurately weighed (m1). An appropriate amount of test sample was spread in the weighing bottle (thickness of test sample is generally about 1 mm), and it was accurately weighed (m2). The weighing bottle was opened and placed with the bottle cap under the above-mentioned constant temperature and humidity conditions. The weighing bottle was taken out at 5 min, 10 min, 20 min, 30 min, 60 min, 120 min and 180 min respectively, and accurately weighed (m3). The weight gain percentage was calculated according to the calculation formula: weight gain percentage=100%× (m3−m2)/(m2−m1).

[2] = Passing rate of 20-mesh sieve at 25° C./75% RH
Experimental: (§1) Study method: 5 g of sample was weighed into a weighing dish (60*30 mm), and placed in an open position at 25° C./75% RH to observe the moisture-proof effect for 0˜3 h.
(§2) See Table 3-1 for the scoring standards of some examples. See Table 3-2 for the score results of fluidity, adhesiveness and deliquescence of moisture-proof L-α-glycerylphosphorylcholine.

[3] = Fluidity and repose angle before and after open storage at 25° C./75% RH for 0~3 h
Experimental: as §1

[4] = Score of fluidity, adhesiveness and deliquescence at 25° C./75% RH
Experimental: as §1, §2

[5] = after open placing at 25° C./75% RH, 3 h
[6] = before placing at 25° C./75% RH

C[N+](C)(C)CCOP(=O)([O-])OC[C@H](O)CO [Raw material 2, L-α-glycerylphosphorylcholine]
weight gain percentage ([1]; 5 min): 3.2% | weight gain percentage ([1]; 10 min): 4.1% | weight gain percentage ([1]; 20 min): 7.2% | weight gain percentage ([1]; 30 min): 9.4% | weight gain percentage ([1]; 60 min): 12.6% | weight gain percentage ([1]; 120 min): 14.4% | weight gain percentage ([1]; 180 min): 18.7%

C[N+](C)(C)CCOP(=O)([O-])OC[C@H](O)CO [Raw material, L-α-glycerylphosphorylcholine]
passing rate of 20-mesh sieve ([2]; 5 min): 97% | passing rate of 20-mesh sieve ([2]; 10 min): 35% | passing rate of 20-mesh sieve ([2]; 20 min): 24% | passing rate of 20-mesh sieve ([2]; 30 min): 2% | passing rate of 20-mesh sieve ([2]; 60 min): 0% | passing rate of 20-mesh sieve ([2]; 120 min): 0% | passing rate of 20-mesh sieve ([2]; 180 min): 0% | Appearance and fluidity, After [3, 5]: All deliquescent and | Repose angle, After [3, 5]: unmeasurable | Appearance and fluidity, Before [3, 6]: Crystalloid/particle, good | Repose angle, Before [3, 6]: 41° | score of fluidity, adhesiveness and deliquescence ([4]; 5 min): 9 | score of fluidity, adhesiveness and deliquescence ([4]; 10 min): 0 | score of fluidity, adhesiveness and deliquescence ([4]; 20 min): 0 | score of fluidity, adhesiveness and deliquescence ([4]; 30 min): 0 | score of fluidity, adhesiveness and deliquescence ([4]; 60 min): 0 | score of fluidity, adhesiveness and deliquescence ([4]; 120 min): 0 | score of fluidity, adhesiveness and deliquescence ([4]; 180 min): 0

C[N+](C)(C)CCOP(=O)([O-])OC[C@H](O)CO [Raw material 1, L-α-glycerylphosphorylcholine]
weight gain percentage ([1]; 5 min): 3.0% | weight gain percentage ([1]; 10 min): 4.2% | weight gain percentage ([1]; 20 min): 7.4% | weight gain percentage ([1]; 30 min): 9.5% | weight gain percentage ([1]; 60 min): 12.3% | weight gain percentage ([1]; 120 min): 14.6% | weight gain percentage ([1]; 180 min): 18.5%
